From patent US11389465B2, “Phosphorylated hexaacyl disaccharides (PHADs) for treating or preventing infections” (VANDERBILT UNIVERSITY, priority 2017, dated 2022)

Legend:
Pseudomonas aeruginosa [1] = test: Pseudomonas burn wound infection in mice, MPLA given before inoculation (FIG. 1); assay type: in vivo; conditions: MPLA 20 μg
Procedure: FIG. 1. MPLA treatment improves host resistance to Pseudomonas burn wound infection. Mice exposed to a 20% full thickness burn wound were treated with MPLA on days 3 and 4 post-burn and were inoculated with 1×10^8 Pseudomonas aeruginosa in the caudad (area 3) portion of the burn wound. A. Wounds were excised 48 hours after inoculation, sectioned into 3 segments (areas 1-3) and homogenized. Bacterial colony forming units (cfu) were determined by culture on agar plates. B. At 4-6 days after infection, wound and lungs were harvested, homogenized and cultured to measure Pseudomonas cfu. C. Survival was determined after Pseudomonas infection. *p<0.05 compared to vehicle.
Consequently, MPLA is currently employed by Glaxo Smith Kline as a component of the FDA-approved ASO4 vaccine adjuvant system (27, 28). […] It was also shown that total wound bacteria and dissemination of Pseudomonas from the burn wound to the lungs was diminished in mice treated with MPLA (FIG. 1B).

Pseudomonas aeruginosa [2] = test: Duration of MPLA activity, intraperitoneal P. aeruginosa challenge (FIG. 4); assay type: in vivo, mice
Procedure: FIG. 4. Duration of MPLA activity. Mice were treated with MPLA (20 μg IP) for 2 consecutive days and challenged with P. aeruginosa at the designated times after the last MPLA treatment. *<0.05 compared to vehicle control.
It is important to know how long the effect of PHADs lasts to guide dosing frequency. Studies were performed with MPLA that show a duration of action of up to 10 days. Mice were treated with MPLA on 2 consecutive days (20 μg, IP) followed by intraperitoneal challenge with Pseudomonas aeruginosa (1×10^8) at 1, 7, 10 or 15 days after the last MPLA treatment (FIG. 4).

[3] = system: tissue macrophages and neutrophils; test: MPLA modulation of tissue macrophages and neutrophils (FIG. 10); assay type: in vivo, mice
Source text: FIG. 10. MPLA induces resistance to infection via modulation of tissue macrophages and neutrophils. A-C) Total splenic A) macrophages, B) neutrophils, and C) monocytes 3 days after S. aureus inoculation or vehicle in MPLA- and vehicle-primed mice. D) Representative image of F4/80^+ immunohistochemical staining (brown) in kidney 3 days after S. aureus inoculation in MPLA- and vehicle-primed mice E) Optical density quantification of F4/80^+ staining in kidneys. F) Mice were primed with MPLA or vehicle via intraperitoneal injection and 24 hours later pHrodo tagged S. aureus bioparticles were injected into the peritoneal cavity. Peritoneal leukocytes were harvested 6 hours later and assessed for pHrodo MFI via flow cytometry. G) Mice were primed with MPLA or vehicle via intraperitoneal injection and 24 hours later leukocytes were harvested from the peritoneal cavity. Respiratory burst was elicited by 45 minutes of PMA stimulation and DHR 123 MFI of macrophages, neutrophils, and monocytes was assessed by flow cytometry. H) Mice were administered intravenous clodronate-liposomes 24 hours prior to the first MPLA administration. Mice were then inoculated with intravenous 10^8 cfu S. aureus. Kaplan-Meier survival plot after S. aureus infection (n=15 mice/group). I) Mice were administered intravenous anti-Ly6G antibody 24 hours prior to the first MPLA administration. Mice were then inoculated with intravenous 10^8 cfu S. aureus. Kaplan-Meier survival plot after S. aureus infection (n=10 mice/group). J) C57BL6 WT and CCR2^−/− mice were primed with MPLA or vehicle and inoculated with intravenous 10^8 cfu S. aureus. Kaplan-Meier survival plot after S. aureus infection (n=10 mice/group). K) WT C57BL6 and RAG2^−/− mice were injected with intravenous MPLA or vehicle prior to intravenous inoculation with 10^8 cfu S. aureus. Kaplan-Meier survival plot (n=10 mice/group). Data shown as mean+/−SEM. For Kaplan-Meier plots *, p<0.05 via log-rank Mantel-Cox test. Otherwise, *, p<0.05 as determined by ANOVA with Tukey's post-hoc multiple comparison test
MPLA treatment increases macrophage, monocyte and neutrophil accumulation in the spleen (FIG. 10, A-C), increases macrophage accumulation in S. aureus abscesses (FIG. 10, D-E) and increases macrophage phagocytosis and respiratory burst functions (FIG. 10, F-G).

P. aeruginosa [4] = test: Pseudomonas pneumonia in burned sheep treated with MPLA (FIG. 14); assay type: in vivo
Procedure: FIG. 14. MPLA treatment improves oxygenation and pulmonary mechanics and attenuates lactate production in sheep with Pseudomonas pneumonia. Studies were undertaken to assess oxygenation, pulmonary mechanics and hemodynamics in burned sheep treated with vehicle or MPLA prior to intrapulmonary challenge with P. aeruginosa. Sheep received a 20% total body surface area thermal burn followed 24 hours later by MPLA infusion. Intrapulmonary P. aeruginosa infection was induced at 24 hours after MPLA infusion. […] Hemodynamics and pulmonary function were measured for 24 hours after Pseudomonas infection.

P. aeruginosa [5] = conditions: 20 μg IP on 2 consecutive days, compared to vehicle
[6] = in vivo; cited from earlier work

**Q.** With Monophosphoryl Lipid A [MPLA] as the substance, how does the “total wound bacteria and dissemination of Pseudomonas from the burn wound to the lungs” value (Pseudomonas aeruginosa [1]; 20% burn, 4-6 days after infection) read?
**A.** diminished

**Q.** What about the survival (Pseudomonas aeruginosa [1]; 20% burn, Pseudomonas wound infection) of the same substance?
**A.** One hundred

**Q.** And the “spread of bacteria within the burn wound (areas 1 and 2)” value (Pseudomonas aeruginosa [1]; 20% cutaneous burn, wound inoculated in area 3)?
**A.** decreased spread of bacteria within the burn wound

**Q.** What about the duration of action (Pseudomonas aeruginosa [2]; MPLA 20 μg IP on 2 consecutive days) of the same substance?
**A.** up to 10 days

**Q.** What about the bacterial burden (Pseudomonas aeruginosa [2]; challenge at 1, 7 and 10 days after last MPLA treatment, compared to vehicle) of the same substance?
**A.** significantly lower bacterial burden

**Q.** And the attenuation of hypothermia (Pseudomonas aeruginosa [2]; challenge up to 15 days after last MPLA treatment)?
**A.** persisted until day 15

**Q.** What about the “macrophage, monocyte and neutrophil accumulation in the spleen” value ([3]; 3 days after S. aureus inoculation) of the same substance?
**A.** increases

**Q.** What about the “beneficial effects of MPLA after depletion of macrophages or neutrophils” value ([3]; clodronate-liposomes or anti-Ly6G, survival after S. aureus, not with cells of the adaptive immune system) of the same substance?
**A.** ablates the beneficial effects of MPLA

**Q.** And the “macrophage phagocytosis and respiratory burst functions” value ([3]; intraperitoneal priming, peritoneal leukocytes)?
**A.** increases

**Q.** What about the “macrophage accumulation in S. aureus abscesses” value ([3]; kidney, F4/80+ staining, 3 days after inoculation) of the same substance?
**A.** increases

**Q.** And the “oxygenation (PaO2/FiO2 ratio, oxygenation index, shunt fraction)” value (P. aeruginosa [4]; 24 hours after Pseudomonas infection, compared to controls)?
**A.** significantly better

**Q.** What about the survival (P. aeruginosa [4]; 72 hour study period) of the same substance?
**A.** All sheep survived

**Q.** And the PaCO2 (P. aeruginosa [4]; MPLA vs vehicle)?
**A.** not significantly different between groups

**Q.** And the “decrease in plasma protein caused by pulmonary infection” value (P. aeruginosa [4]; MPLA vs vehicle, difference not significant)?
**A.** trended towards attenuation

**Q.** What about the plasma lactate concentration (P. aeruginosa [4]; compared to controls) of the same substance?
**A.** significantly lower

**Q.** What about the “bacterial burden (peritoneal cavity)” value (P. aeruginosa [5]; 6 hours after challenge) of the same substance?
**A.** decreased bacterial burden

**Q.** What about the “neutrophil and monocyte recruitment to the site of infection” value (P. aeruginosa [5]; 6 hours after challenge) of the same substance?
**A.** markedly enhanced

**Q.** And the infection-induced hypothermia (P. aeruginosa [5])?
**A.** attenuated infection-induced hypothermia

**Q.** What about the “dose relative to LPS that can be administered to humans before adverse side effects occur” value [6] of the same substance?
**A.** 1000-10,000 times
